{"source": "patent US20260294964A1", "about": "“PHARMACEUTICALS CONTAINING CHELATORS WITH STRONG ZN IONS-HOLDING FEATURE FOR THE TREATMENT OF SYMPTOMS AND DISEASES CAUSED BY MICROORGANISMS/DISEASES CAUSED BY TOXINS OR NEUROTOXINS/CANCER/SEVERAL SYNDROMES” (priority 2023, published 2026)", "key": {"mice": {"tested_on": "mice", "assay_type": "in vivo, mouse", "conditions": "0.3% in drinking water from 12 hours after flocoumafen"}, "[1]": {"test": "Metallic Cu suspension test with 1% Na ascorbate (Cu ion complex formation)", "assay_type": "physicochemical", "conditions": "0.1% CuCl2, alone or with several percent of chelator; excess 1% Na ascorbate"}, "Boraras Micros fish [2]": {"tested_on": "Boraras Micros fish", "test": "Neutralization of toxins/neurotoxins in Boraras Micros fish", "assay_type": "in vivo"}, "[3]": {"tested_on": "dry eyes/eye pain/red eyes", "test": "Treatment of dry eyes/eye pain/red eyes", "assay_type": "in vivo, human", "conditions": "0.1% eye drops, 2 to 6 times a day"}, "headache": {"tested_on": "headache", "test": "Treatment of headaches of unknown cause", "assay_type": "in vivo, human", "conditions": "0.5 g oral, adult"}, "Boraras Micros fish [4]": {"tested_on": "Boraras Micros fish"}, "[5]": {"assay_type": "physicochemical, animal/human blood"}, "Boraras Micros fish [6]": {"tested_on": "Boraras Micros fish", "test": "Protection of Boraras Micros fish from CuCl2 by chelators", "assay_type": "in vivo", "conditions": "0.4 ppm CuCl2 + a few ppm to more than 10 ppm of chelator"}, "[7]": {"tested_on": "microorganisms that decompose organic matter (bacteria/fungi)", "test": "Culture of microorganisms that decompose organic matter", "assay_type": "cell-based", "conditions": "media with growth promoting substances"}, "[8]": {"tested_on": "toxins/neurotoxins; microorganisms", "conditions": "processed foods"}, "[9]": {"tested_on": "pathogenic microorganisms", "test": "Inhibition/killing of pathogenic microorganisms in water with Boraras Micros fish infected from dead fish", "assay_type": "in vivo", "conditions": "for appearance of water after 6 days / fish outcome after 6 days: 10 ppm Ampicillin / 20 ppm Bactrim / 100 ppm triethylenetetramine diethylenetriaminepentaacetate / 300 Mg EDTA / 600 ppm Ca EDTA / combinations as in label"}, "[10]": {"test": "Safety of Ca EDTA in adults", "assay_type": "in vivo, human", "conditions": "20 g for each time, 4 hours apart"}, "[11]": {"tested_on": "loss of taste in Covid 19", "test": "Treatment of loss of taste in Covid 19", "assay_type": "in vivo, human", "conditions": "solution containing 2% Ca EDTA sucked for a few minutes"}}, "note": "Entries after “also recorded” stand apart in the source; their conditions may differ. Like-named read-outs stand apart in the source and are kept apart here.", "data": [{"compound": "triethylenetetramine diethylenetriaminepentaacetate", "values": [{"measurement": "survival of mice fed flocoumafen", "setting": "mice", "value": "after many days the mice still lived"}, {"measurement": "appearance of metallic Cu suspension", "setting": "[1]", "value": "metallic Cu suspension will not appear"}, {"measurement": "survival of fish with Alpha Cypermethrin", "setting": "Boraras Micros fish [2]; 0.2 ppm Alpha Cypermethrin + 50-300 ppm chelator", "value": "lived for many days"}, {"measurement": "survival of fish with Methylamine Avermectin", "setting": "Boraras Micros fish [2]; 0.2 ppm Methylamine Avermectin + 50-300 ppm chelator", "value": "lived for many days"}, {"measurement": "survival of fish with Bromadiolone", "setting": "Boraras Micros fish [2]; 0.3 ppm Bromadiolone + 50-300 ppm chelator", "value": "lived for many days"}, {"measurement": "survival of fish with phenylperazole", "setting": "Boraras Micros fish [2]; 1.0 ppm phenylperazole + 50-300 ppm chelator", "value": "lived for many days"}, {"measurement": "survival of fish with flocoumafen", "setting": "Boraras Micros fish [2]; 1.25 ppm flocoumafen + 50-300 ppm chelator", "value": "lived for many days (up to weeks)"}, {"measurement": "survival of fish with Emamectin benzoate", "setting": "Boraras Micros fish [2]; 2.5 ppm Emamectin benzoate + 50-300 ppm chelator", "value": "lived for many days"}, {"measurement": "survival of fish with Nereistoxin", "setting": "Boraras Micros fish [2]; 5 ppm Nereistoxin + 50-300 ppm chelator", "value": "lived for many days (up to weeks)"}, {"measurement": "dry eyes/eye pain symptoms a few minutes after instilling", "setting": "[3]", "value": "no longer exist"}, {"measurement": "red eyes symptoms", "setting": "[3]", "value": "decrease after a few hours"}, {"measurement": "time until headache symptoms significantly reduced", "setting": "headache", "value": "about 2 hours"}, {"measurement": "survival of fish", "setting": "Boraras Micros fish [4]; 2000 ppm triethylenetetramine diethylnenepentaacetate / 3000 ppm Mg EDTA / 2000 ppm Cu EDTA / 12000 ppm Ca EDTA, mixtures at concentrations in label", "value": "lived for many days"}, {"measurement": "volume that completely dissolves Zn-blood complex suspension", "setting": "[5]; concentration of solution not given, suspension from 1.4 ml 0.1% ZnCl2 in 100 ml 0.9% NaCl with 1% blood", "value": 1.2, "unit": "mL"}, {"measurement": "amount needed to completely dissolve Zn-blood complex suspension, compared with lysine phosphate/lysine chloride/arginine phosphate/arginine chloride", "setting": "[5]; suspension with 2 ppm ZnCl2", "value": "tens to hundreds of times lower"}, {"measurement": "survival of fish in CuCl2 with chelator", "setting": "Boraras Micros fish [6]", "value": "will not die after several weeks"}, {"measurement": "concentration at which proliferation of microorganisms is strongly inhibited", "setting": "[7]", "value": 100, "unit": "ppm"}, {"measurement": "concentration that inactivates toxins/neurotoxins while preventing proliferation of microorganisms", "setting": "[8]", "value": "over 30 ppm"}, {"measurement": "appearance of water after 6 days", "setting": "[9]", "value": "clear; also recorded: transparent"}, {"measurement": "fish outcome after 6 days", "setting": "[9]", "value": "lived; also recorded: did not die"}, {"measurement": "concentration in host blood/tissue fluid/alveolar fluid above which ability to inhibit/kill pathogenic bacteria far exceeds Bactrim 10 ppm/Ampicillin 20 ppm", "setting": "[9]; in vivo", "value": "above 60 ppm"}]}, {"compound": "O=C(O)CN(CCN(CC(=O)O)CC(=O)O)CC(=O)O.[Ca]", "note": "[Ca EDTA, Ethylenediaminetetraacetic acid calcium]", "values": [{"measurement": "amount used by adults in 24 hours without side effects", "setting": "[10]", "value": "under 120 g"}, {"measurement": "survival of fish", "setting": "Boraras Micros fish [4]; in vivo", "value": "lived for many days"}, {"measurement": "time after which fish did not die", "setting": "Boraras Micros fish [4]; in vivo", "value": "≥ 10", "unit": "days"}, {"measurement": "toxicity / safety to host cells", "setting": "Boraras Micros fish [4]; in vivo", "value": "highly safe"}, {"measurement": "recovery of sweet taste", "setting": "[11]", "value": "recover immediately afterwards"}, {"measurement": "survival of fish in CuCl2 with chelator", "setting": "Boraras Micros fish [6]", "value": "will not die after several weeks"}, {"measurement": "concentration at which proliferation of microorganisms is strongly inhibited", "setting": "[7]", "value": 700, "unit": "ppm"}, {"measurement": "appearance of water after 6 days", "setting": "[9]; calcium", "value": "clear; also recorded: transparent"}, {"measurement": "fish outcome after 6 days", "setting": "[9]; calcium", "value": "lived; also recorded: did not die"}]}]}
